The test system of this test is AMPA receptors. The test is described as follows: AMPA ES Cell FLIPR Screen (AMPA Potentiator Assay). Conditions: ES cell-derived neurons, FLIPR (Fluo-4), 32 μM AMPA challenge; values marked * are the geometric mean of 2-5 EC50 determinations. In kind it is cell-based, murine. The text has this: Growth and Maintenance of ES Cells
Murine ES cell line E14, with a targeted mutation in the Sox1 gene and a neuroectodermal marker that offers G418 resistance when the Sox1 gene is expressed (Stem Cell Sciences, West Mains Road, Edinburgh, Scotland EH9 3JQ) may be used in all experiments. ES cells may be maintained undifferentiated as previously described (Methods For The Isolation And Maintenance Of Murine Embryonic Stem Cells; Roach-M-L, McNeish-J-D., Methods in Molecular Biology, 185, 1-16 (2002)). Briefly, ES cells may be grown in stem cell culture media comprising a base medium of Knockout™ D-MEM (Invitrogen 5791 Van Allen Way, Carlsbad, Calif. USA 92008), supplemented with 15% ES qualified Fetal Bovine Serum (FBS) (Invitrogen), 0.2 mM L-Glutamine (Invitrogen), 0.1 mM MEM non-essential amino acids (Invitrogen), 30 μg/ml Gentamicin […] (Invitrogen), 1000 U/ml ESGRO™ (CHEMICON International, Inc., 28820 Single Oak Drive, Temecula, Calif. 92590) and 0.1 mM 2-mercaptoethanol (Sigma, 3050 Spruce St., St. Louis, Mo. 63103). ES cells may then be plated on gelatin-coated dishes (BD Biosciences, 2350 Qume Drive, San Jose, Calif. 95131), wherein the media is changed daily and the cells dissociated with 0.05% Trypsin EDTA (Invitrogen) every other day.
Neural In Vitro Differentiation of ES Cells
Embryoid Body Formation: Prior to embryoid body (EB) formation the ES cells may be weaned from FBS onto Knockout Serum Replacement™ (KSR) (Invitrogen). To form EBs, ES cells may be dissociated into a single cell suspension, then 3×10^6 cells plated in bacteriology dishes (Nunc 4014) and grown as a suspension culture in NeuroEB-I medium that consisted of Knockout™ D-MEM (Invitrogen), supplemented with 10% KSR (Invitrogen), 0.2 mM L-Glutamine (Invitrogen), 0.1 mM MEM non-essential amino acids (Invitrogen), 30 μg/ml Gentamicin (Invitrogen), 1000 U/ml ESGRO™ (CHEMICON International, Inc.), 0.1 mM 2-mercaptoethanol (Sigma) and 150 ng/ml Transferrin (Invitrogen). The plates may then be put on a Stovall Belly Button™ shaker in an atmospheric oxygen incubator. The media may be changed on day 2 of EB formation with NeuroEB-I and on day 4 with NeuroEB-II (NeuroEB-I plus 1 μg/ml mNoggin (R&D Systems, 614 McKinley Place N.E. Minneapolis, Minn. 55413)
Neuronal Precursor Selection and Expansion: On day 5 of EB formation, EBs may be dissociated with 0.05% Trypsin EDTA, and 4×10^6 cells/100 mm dish may then be plated on Laminin coated tissue culture dishes in NeuroEB-II-G418 medium that consisted of a base medium of a 1:1 mixture of D-MEM/F12 supplemented with N2 supplements and NeuroBasal Medium supplemented with B27(I ASSUME THIS IS THE VITAMIN) supplement and 0.1 mM L-Glutamine (all from Invitrogen). The base medium may then be supplemented with 10 ng/ml bFGF (Invitrogen), 1 μg/ml mNoggin, 500 ng/ml SHH-N (IS THIS SONIC HEDGEHOG FROM ProSpecBio Rehovot Science Park, P.O. BOX 398, Rehovot 76103, Israel), 100 ng/ml FGF-8b (R&D Systems), 1 μg/ml Laminin and 200 μg/ml G418 (Invitrogen) for selection of neuronal precursors expressing Sox-1. The plates may then be put in an incubator containing 2% oxygen and maintained in these conditions. During the 6-day selection period, the NeuroEB-II ([…]) media should be changed daily. On day 6, the surviving neuronal precursor foci may then be dissociated with 0.05% Trypsin EDTA and the cells plated at a density of 1.5×10^6 cells/100 mm Laminin coated dish in Neuroll ([…])-G418 medium. The cells may then be dissociated every other day for expansion, and prepared for cryopreservation at passage 3 or 4. The cryopreservation medium typically contains 50% KSR, 10% dimethyl sulfoxide (DMSO) (Sigma) and 40% Neurol([…])-G418 medium. Neuronal precursors may be cryopreserved at a concentration of 4×10^6 cells/ml and 1 ml/cryovial in a controlled rate freezer overnight then transferred to an ultra-low freezer or liquid nitrogen for long-term storage. […]

Here are results for 25 compounds from patent publication US8686043B2, “Heterocyclic sulfonamides, uses and pharmaceutical compositions thereof” (Pfizer Inc., priority 2009, dated 2014).

Molecules are shown by their SMILES.

By EC50 is commonly meant the concentration that produces a half-maximal response. Regarding `CC(=O)NC1CCN(c2ccc(O[C@@H]3COC[C@H]3NS(=O)(=O)C(C)C)cc2)C1` (mixture of isomers) [Example 1, N-{1-[4-trans-({4-[(isopropylsulfonyl)amino]tetrahydrofuran-3-yl}oxy)phenyl]pyrrolidin-3-yl}acetamide], the EC50 was 3330 nM.

Take `CCOc1ccccc1-c1ccc(O[C@@H]2COC[C@H]2NS(=O)(=O)C(C)C)cc1` (racemic) [Example 8, trans-N-{4-[(2′-ethoxybiphenyl-4-yl)oxy]tetrahydrofuran-3-yl}propane-2-sulfonamide.]: the EC50 came out at 2910 nM.

For the compound `CC(C)S(=O)(=O)N[C@H]1COC[C@H]1Oc1ccc(-c2ccc(C#N)s2)nc1` (racemic) [Example 23, cis-N-[4-{[6-(5-cyano-2-thienyl)pyridin-3-yl]oxy}tetra hydrofuran-3-yl]propane-2-sulfonamide], the EC50 was 2580 nM.

For `CC(C)S(=O)(=O)N[C@H]1COC[C@H]1Oc1ccc(-c2ccc(N(C)C)nc2)cc1` (racemic) [Example 43, cis-N-[4-{4-[6-(dimethyl-amino)-pyridin-3-yl]phenoxy}-tetrahydrofuran-3-yl]propane-2-sulfonamide], the EC50 came out at 4480 nM.

With `CC(C)S(=O)(=O)N[C@H]1COC[C@H]1Oc1ccc(-c2ccccc2C(F)(F)F)cc1` (racemic) [Example 44, cis-N-[4-{[2′-(trifluoro-methyl)-biphenyl-4-yl]oxy}-tetrahydrofuran-3-yl]propane-2-sulfonamide], the EC50 is 2700 nM.

As to `Cc1ccc(-c2ccc(O[C@@H]3COC[C@@H]3NS(=O)(=O)C(C)C)cc2)cc1` (racemic) [Example 45, cis-N-{4-[(4′-methylbiphenyl-4-yl)oxy]-tetrahydrofuran-3-yl}propane-2-sulfonamide], the EC50 was determined as 2550 nM.

With `CC(C)S(=O)(=O)N[C@H]1COC[C@H]1Oc1ccc(-c2cccc(C(F)(F)F)c2)cc1` (racemic) [Example 47, cis-N-[4-{[3′-(trifluoromethyl)biphenyl-4-yl]oxy}tetrahydrofuran-3-yl]propane-2-sulfonamide], the EC50 was 3820 nM.

In the case of `CC(C)S(=O)(=O)N[C@H]1COC[C@H]1Oc1ccc(-c2ccncc2)cc1` (racemic) [Example 48, cis-N-[4-(4-pyridin-4-ylphenoxy)tetrahydrofuran-3-yl]propane-2-sulfonamide], the EC50 was 626 nM.

`CC(C)S(=O)(=O)N[C@H]1COC[C@H]1Oc1ccc(-c2cccc3ncccc23)cc1` (racemic) [Example 50, cis-N-[4-(4-quinolin-5-ylphenoxy)tetrahydrofuran-3-yl]propane-2-sulfonamide]: the EC50 was found to be 452 nM.

Turning to `CC(C)S(=O)(=O)N[C@H]1COC[C@H]1Oc1ccc(-c2cccc3cnccc23)cc1` (racemic) [Example 52, cis-N-[4-(4-isoquinolin-5-ylphenoxy)tetrahydrofuran-3-yl]propane-2-sulfonamide], the EC50 stood at 1250 nM.

In the case of `CC(C)S(=O)(=O)N[C@@H]1COC[C@@H]1Oc1ccc(-c2ccc(C#N)cc2)cc1` (relative stereo) [Example 9, cis-N-{4-[(4′-cyanobiphenyl-4-yl)oxy]tetra hydrofuran-3-yl}propane-2-sulfonamide], the EC50 came out at 6150 nM.

In the case of `CC(C)S(=O)(=O)N[C@@H]1COC[C@@H]1Oc1ccc(-c2cccnc2)cc1` (relative stereo) [Example 10, cis-N-[4-(4-pyridin-3-ylphenoxy)tetrahydrofuran-3-yl]propane-2-sulfonamide], the EC50 was determined as 1160 nM.

Take `CC(C)S(=O)(=O)N[C@@H]1COC[C@@H]1Oc1ccc(-c2cccs2)cc1` (relative stereo) [Example 11, cis-N-{4-[4-(2-thienyl)phenoxy]tetrahydrofuran-3-yl}propane-2-sulfonamide]: the EC50 was 689 nM.

In the case of `CC(C)S(=O)(=O)N[C@@H]1COC[C@@H]1Oc1ccc(-c2ccc(F)nc2)cc1` (relative stereo) [Example 12, cis-N-{4-[4-(6-fluoropyridin-3-yl)phenoxy]tetrahydrofuran-3-yl}propane-2-sulfonamide], the EC50 turned out to be 1100 nM.

`COc1ccc(-c2ccc(O[C@H]3COC[C@H]3NS(=O)(=O)C(C)C)cc2)cn1` (relative stereo) [Example 13, cis-N-{4-[4-(6-methoxypyridin-3-yl)phenoxy]tetrahydrofuran-3-yl}propane-2-sulfonamide]: the EC50 came to 5280 nM.

In the case of `CC(C)S(=O)(=O)N[C@@H]1COC[C@@H]1Oc1ccc(-c2ccoc2)cc1` (relative stereo) [Example 14, cis-N-{4-[4-(3-furyl)phenoxy]tetrahydrofuran-3-yl}propane-2-sulfonamide], the EC50 came out at 2320 nM.

As to `CC(C)S(=O)(=O)N[C@@H]1COC[C@@H]1Oc1ccc(-c2cccnc2F)cc1` (relative stereo) [Example 15, cis-N-{4-[4-(2-fluoropyridin-3-yl)phenoxy]tetrahydrofuran-3-yl}propane-2-sulfonamide], the half-maximal effective concentration (EC50) stood at 2880 nM.

Consider `CC(C)S(=O)(=O)N[C@@H]1COC[C@@H]1Oc1ccc(-c2ccsc2)cc1` (relative stereo) [Example 24, cis-N-{4-[4-(3-thienyl)phenoxy]tetrahydrofuran-3-yl}propane-2-sulfonamide], for which the EC50 stood at 523 nM.

`CC(C)S(=O)(=O)N[C@H]1COC[C@H]1Oc1ccc(-c2ccc(C(=O)N(C)C)cc2)cc1` (relative stereo) [Example 46, cis-4′-({4-[(isopropyl-sulfonyl)-amino]tetrahydrofuran-3-yl}oxy)-N,N-dimethyl-biphenyl-4-carboxamide]: the EC50 stood at 6760 nM.

As to `CC(C)S(=O)(=O)N[C@H]1COC[C@H]1Oc1ccc(-c2ccccc2C(N)=O)cc1` (relative stereo) [Example 49, cis-4′-({4-[(isopropylsulfonyl)amino]tetrahydrofuran-3-yl}oxy)biphenyl-2-carboxamide], the EC50 stood at 1410 nM.

For `CC(C)S(=O)(=O)N[C@H]1COC[C@H]1Oc1ccc(-c2ccccc2S(=O)(=O)NC(C)(C)C)cc1` (relative stereo) [Example 51, cis-N-tert-butyl-4′-({4-[(isopropylsulfonyl)amino]tetrahydrofuran-3-yl}oxy)biphenyl-2-sulfonamide], the EC50 came out at 2090 nM.

As to `CC(C)S(=O)(=O)N[C@H]1COC[C@H]1Oc1ccc(-c2cccc(C(N)=O)c2)cc1` (relative stereo) [Example 53, cis-4′-({4-[(isopropylsulfonyl)amino]tetrahydrofuran-3-yl}oxy) biphenyl-3-carboxamide], the EC50 was determined as 1110 nM.

In the case of `CC(C)S(=O)(=O)N[C@H]1COC[C@H]1Oc1ccc(-c2ccc(F)cc2C#N)cc1` (single isomer, unassigned) [Example 16], the EC50 is under 10 nM.

As for `CC(C)S(=O)(=O)N[C@H]1COC[C@H]1Oc1ccc(-c2ccc(F)cc2)cc1` (single isomer, unassigned) [Example 17], the EC50 came out at 405 nM.

Turning to `CC(C)S(=O)(=O)N[C@H]1COC[C@H]1Oc1ccc(-c2ccccc2)cc1` [Example 2, N-[(3S,4S)-4-(biphenyl-4-yloxy)tetrahydrofuran-3-yl]propane-2-sulfonamide], the EC50 was 1360 nM.
